Earlier results in publication PMC6444188, “Systemic Administration of Avian Defensin 7: Distribution, Cellular Target, and Antibacterial Potential in Mice” (Frontiers in Microbiology, 2019).
Ends that are not written are not given here.

Assays:
S. Typhimurium = tested on: S. Typhimurium
Excerpt: The ability of AvBD7 to reduce bacterial load in the liver of Salmonella-infected animals is in agreement with the distribution of this defensin to this organ. Indeed, even if most part of the fluorescence-labeled AvBD7 injected in the peritoneal cavity of mice reached bloodstream, kidneys and was eliminated through the urinary tract, a substantial amount was found in the liver, the second most fluorescent organ after the kidneys.

S. Typhi = details: intraperitoneal mouse model of salmonellosis; ref Maiti et al., 2014
Excerpt: There is a lack of knowledge on the ability of defensins to exert antimicrobial activity toward MDR bacterial strains. […] There are several mouse salmonellosis models available to assess vaccine and antimicrobials efficacy ([Higginson et al., 2016]). These range from models of colonization or lethality, through infection by the oral, ...

proteases = tested on: proteases
Excerpt: AvBDs are characterized by cationicity and structure with the typical beta-sheet stabilized by three disulfide bonds between six highly conserved cysteines while primary sequences are diverse ([Derache et al., 2012]).

[1] = 30 mg/kg i.p., S. Typhimurium-infected mice, ref Benincasa et al., 2010

Substance: Bac7: proline-rich antimicrobial peptide (RRIRPRPPRLPRPRPRPLPFPRPGPRPIPRPLPFP; Bac7; UniProt P19661 131-165, looked up, fragment)
- effect on liver bacterial load (S. Typhimurium; [1]): without significant reduction of the liver bacterial load
- effect on mice survival (S. Typhimurium; [1]): beneficial effect on mice survival
- time to elimination following i.p. injection (S. Typhimurium; mouse, in vivo, ip): ≤ 5 h

Substance: HBD1: human beta-defensin (DHYNCVSSGGQCLYSACPIFTKIQGTCYRGKAKCCK; ends and bridges not checked; cysteine pairing not given here; UniProt P60022 33-68, looked up)
- effect on disease and bacterial load (S. Typhi): efficient in attenuating the disease and the bacterial load

Substance: HBD3: human beta-defensin (GIINTLQKYYCRVRGGRCAVLSCLPKEEQIGKCSTRGRKCCRRKK; ends and bridges not checked; cysteine pairing not given here; UniProt P81534 23-67, looked up)
- stability toward proteases (proteases): can be inactivated by proteases
